Measurements taken from US5747661A, “Retinoid-inducible response elements” (Howard Hughes Medical Institute).
“Also recorded” adds a separate entry of the source.

T1: GAL4-RAR (Homo sapiens, UniProt P10276)
T1 construct: hRARα 185-462; expressed in transfected cells; host or cells: CV-1
T1 sequence (P10276 185-462): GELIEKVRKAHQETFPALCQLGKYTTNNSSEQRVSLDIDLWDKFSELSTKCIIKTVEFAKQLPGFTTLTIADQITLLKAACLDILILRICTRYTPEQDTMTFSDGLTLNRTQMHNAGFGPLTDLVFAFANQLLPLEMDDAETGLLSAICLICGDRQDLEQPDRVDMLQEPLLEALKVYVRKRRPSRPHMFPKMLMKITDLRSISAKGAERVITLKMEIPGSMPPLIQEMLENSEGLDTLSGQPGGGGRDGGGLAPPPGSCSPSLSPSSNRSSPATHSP

T2: GAL4-LXR (Homo sapiens, UniProt Q13133)
T2 construct: hLXRα 166-447; expressed in transfected cells; host or cells: CV-1
T2 sequence (Q13133 166-447): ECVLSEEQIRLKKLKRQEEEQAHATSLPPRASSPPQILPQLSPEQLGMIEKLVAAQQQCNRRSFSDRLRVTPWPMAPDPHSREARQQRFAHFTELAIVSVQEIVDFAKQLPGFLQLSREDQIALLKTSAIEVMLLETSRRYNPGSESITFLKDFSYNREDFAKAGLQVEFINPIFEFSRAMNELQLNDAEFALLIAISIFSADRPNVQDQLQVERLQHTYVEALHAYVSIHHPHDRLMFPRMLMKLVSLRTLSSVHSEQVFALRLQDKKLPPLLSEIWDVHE

B1: LXRE (ΔMTV) (dsDNA)
DNA 1: CTTGCGGTTCCCAGGGTTTAAATAAGTTCA
DNA 2: TGAACTTATTTAAACCCTGGGAACCGCAAG

Experiments:
hLXRα = experiment: CV-1 cotransfection assay, hLXRα expression plasmid with LXRE luciferase reporter (TK-LXRE3-LUC / TK-LXRE2-LUC); assay type: cell-based, human; conditions: for LXRα activation of LXRE-containing luciferase reporter (TK-LXRE3-LUC): CV-1 cells, hLXRα transfected alone, 10^-5 M 9cRA, 10^-5 M TTNPB, 10^-4 M methoprene acid, harvested 36 hours after ligand
Description: (§1) CV-1 cells were maintained at 37° C., 5% CO2 in DMEM containing 5% calf bovine serum (CBS). Transfections were performed in 8-well plates in media containing 5% dextran-charcoal stripped CBS by the calcium phosphate coprecipitation technique as described previously (Mangelsdorf et al., (1990) supra). Eight hours after transfections ligands were delivered to cells at 10^3 -fold dilutions (0.1% vol/vol of solvent in media). Retinoids (gifts from Marcus Boehm at Ligand Pharmaceuticals, Inc.) were manipulated under gold light and stored dark in ethanol or methanol under nitrogen gas at -80° C. Cells were harvested 36 hours after addition of ligand and analyzed for luciferase and β-galactosidase activity using a Dynatech microtiter plate Model ML3000 luminometer and a Model MR5000 spectrophotometer, respectively.
For most experiments, cotransfection of DNA into mammalian cells was accomplished with 50 ng reporter plasmid, 50 ng RSV- or CMX-βgal, 25 ng of each receptor expression plasmid and pGEM carrier to give 375 ng DNA/well. For controls, the empty CMX vector was used in place of the receptor cDNA. For the GAL4-receptor chimera experiments, 30 ng receptor and 80 ng of reporter plasmid were used. For GAL4 and VP16 chimera interaction assays, 30 ng of GAL4-LXRα and 15 ng of the VP16-RAR or -RXR were used along with 80 ng of the reporter plasmid. All transfection data points were normalized using an internal β-galactosidase marker (Mangelsdorf et al., (1990) supra) and represent the mean of duplicate or triplicate assays.
To identify a potential ligand for the orphan receptor LXRα, a cell-based cotransfection screening assay similar to that used to successfully identify the RXR ligand (see Mangelsdorf et al., (1990) supra; Heyman et al., in Cell68:397-406 (1992)) was employed. Initially an LXR responsive gene was unknown, therefore the preliminary experiments were designed to first identify an LXR-specific DNA binding sequence that could serve as an LXR responsive element (referred to as an LXRE). […] Thus, an assay system was established by transfecting CV-1 cells with an expression plasmid harboring the cDNA for LXRα and the luciferase reporter plasmid TK-LXRE3-LUC (see FIG. 2a). TK-LXRE3-LUC contains three copies of the LXRE defined herein; TK-CRBPII-LUC contains the RXRE from the rat CRBPII promoter (Mangelsdorf et al., (1991) supra)); TK-βRE-LUC contains the RAR response element from the mouse RARβ2 promoter (Sucov et al., (1990) supra). Luciferase activity is expressed in relative light units (RLU) and represents the mean of triplicate assays (±SEM) normalized to βgal as an internal standard.
Thus, expression plasmids for hLXRα, hRXRα, or no receptor (-) were cotransfected into CV1 cells in combination with the reporter plasmids TK-LUC or TK-LXRE2-LUC as indicated. […]

GAL4-RAR = target: T1, GAL4-RAR; experiment: GAL4-receptor chimera ligand activation, GAL4-RAR with TK-MH100x4-LUC in CV1 cells; assay type: cell-based; conditions: 10^-5 M 9cRA, 10^-5 M TTNPB, 10^-4 M methoprene acid, FIG. 3c
Description: (§2) FIG. 3C illustrates the ligand specificity of the GAL4-receptor chimeras. […] In both 3B and 3C, CV1 cells were cotransfected as described previously with CMX vectors driving expression of the indicated hybrid proteins and the reporter plasmid TK-MH100x4-LUC, which contains four copies of the GAL4 DNA upstream activation sequence. In FIG. 3C, ligands were added as described with reference to FIG. 2. Luciferase activity is expressed as RLUs (relative light units) corrected for transfection efficiency using an internal […] standard and represents the mean of triplicate assays (±SEM).
(§3) The hLXRα cDNA insert was excised from the plasmid pXR2ΔRV with Kpn1 and BamHI and ligated into the expression vectors RSV and CMX. […] The cDNAs encoding the ligand-binding domain (LBD) of each of the receptors were then ligated into the polylinker to create GAL4-LBD fusions.
(§4) Such heterologous system provides an effective means for directly assaying receptor/ligand interactions, even in the presence of endogenous wild-type receptors.

GAL4-LXR = target: T2, GAL4-LXR; experiment: GAL4-receptor chimera ligand activation, GAL4-LXR with TK-MH100x4-LUC in CV1 cells; assay type: cell-based; conditions: 10^-5 M 9cRA, 10^-5 M TTNPB, 10^-4 M methoprene acid, FIG. 3c
Description: as §2
Construction of wild-type receptor inserted into the expression vectors RSV and CMX, have been detailed elsewhere (Gigueere et al., in Cell46:645-652 (1986); Umesono et al., in Cell65:1255-1266 (1991); Mangelsdorf et al., (1990) supra). The hLXRα cDNA insert was excised from the plasmid pXR2ΔRV with Kpn1 and BamHI and ligated into the expression vectors RSV and CMX. Chimeric Gal4-receptor expression plasmids (e.g. CMX-GAL4-LXRα) were constructed by first ligating the GAL4 portion of pSG424 (Sadowski and Ptashne, in Nucleic Acids Res. 17:[…] (1989)) into the HindIII/SacI sites of pCMX (Umesono et al., in Cell 65:1255-1266 (1991)) to create pCMX-GAL4. This vector contains the CMV promoter fused to the coding sequence for GAL4 (1-147), followed by inframe polylinker cloning sites and translational stop codons. The cDNAs encoding the ligand-binding domain (LBD) of each of the receptors were then ligated into the polylinker to create GAL4-LBD fusions.
The following receptor amino acid sequences were used for these constructions and their corresponding DNA sequences ligated into pCMX-GAL4:hLXRα 166-447, hRXRα 203-462 and hRARα 185-462.
To address the possibility that the retinoid response elicited by LXRα was through the direct interaction of ligand with the putative ligand binding domain of LXRα, ligand activation experiments were performed with the GAL4-receptor hybrids. […]

RARs = conditions: from the literature; cited from earlier work
RXRs = conditions: from the literature; cited from earlier work
hRXRα [1] = target: T3, hRXRα (Homo sapiens, UniProt P19793); experiment: CV-1 cotransfection assay, hRXRα expression plasmid with RXRE luciferase reporter TK-CRBPII-LUC; assay type: cell-based; conditions: CV1 cells, 10^-4 M methoprene acid, FIG. 2d
T3 construct: Construction of wild-type receptor inserted into the expression vectors RSV and CMX; expressed in transfected cells; host or cells: CV-1
T3 sequence (P19793 whole entry): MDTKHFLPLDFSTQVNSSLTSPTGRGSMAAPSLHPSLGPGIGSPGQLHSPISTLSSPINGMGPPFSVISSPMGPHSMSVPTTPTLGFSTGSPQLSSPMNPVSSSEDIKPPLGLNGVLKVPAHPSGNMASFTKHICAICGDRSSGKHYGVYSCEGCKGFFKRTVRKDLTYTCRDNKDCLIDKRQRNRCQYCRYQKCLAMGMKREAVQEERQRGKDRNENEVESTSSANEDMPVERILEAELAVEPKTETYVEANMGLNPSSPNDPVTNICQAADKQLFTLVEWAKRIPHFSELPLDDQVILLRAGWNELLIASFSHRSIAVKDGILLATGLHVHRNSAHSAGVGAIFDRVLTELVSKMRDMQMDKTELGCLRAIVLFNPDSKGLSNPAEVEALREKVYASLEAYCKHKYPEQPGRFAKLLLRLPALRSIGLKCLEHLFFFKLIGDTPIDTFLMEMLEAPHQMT
Description: as §1
(§5) For most experiments, cotransfection of DNA into mammalian cells was accomplished with 50 ng reporter plasmid, 50 ng RSV- or CMX-βgal, 25 ng of each receptor expression plasmid and pGEM carrier to give 375 ng DNA/well. For controls, the empty CMX vector was used in place of the receptor cDNA. For the GAL4-receptor chimera experiments, 30 ng receptor and 80 ng of reporter plasmid were used. For GAL4 and VP16 chimera interaction assays, 30 ng of GAL4-LXRα and 15 ng of the VP16-RAR or -RXR were used along with 80 ng of the reporter plasmid. […]

hRARα = target: T4, hRARα (Homo sapiens, UniProt P10276); experiment: CV-1 cotransfection assay with RAR response element luciferase reporter (TK-βRE-LUC); assay type: cell-based; conditions: CV1 cells; 10^-5 M TTNPB, 10^-4 M methoprene acid; occurs also without transfected RAR or RXR
T4 construct: Construction of wild-type receptor inserted into the expression vectors RSV and CMX; expressed in transfected cells; host or cells: CV-1
T4 sequence (P10276 whole entry): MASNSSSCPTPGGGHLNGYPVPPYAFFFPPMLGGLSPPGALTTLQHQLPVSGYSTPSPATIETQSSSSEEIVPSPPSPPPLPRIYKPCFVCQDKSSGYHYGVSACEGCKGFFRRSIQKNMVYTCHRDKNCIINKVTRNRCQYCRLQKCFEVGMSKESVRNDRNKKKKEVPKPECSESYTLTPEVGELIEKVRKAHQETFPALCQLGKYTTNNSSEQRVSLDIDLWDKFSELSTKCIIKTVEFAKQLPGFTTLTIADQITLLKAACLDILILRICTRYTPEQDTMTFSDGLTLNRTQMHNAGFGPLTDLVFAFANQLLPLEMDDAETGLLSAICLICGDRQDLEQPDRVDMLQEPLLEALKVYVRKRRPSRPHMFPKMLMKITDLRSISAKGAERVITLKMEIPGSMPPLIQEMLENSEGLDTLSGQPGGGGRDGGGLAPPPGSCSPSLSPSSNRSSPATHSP
T4 sequence (P19793 whole entry, further chain): as the sequence (P19793 whole entry) above
Description: as §1, §5

GAL4-RXR = target: T5, GAL4-RXR (Homo sapiens, UniProt P19793); experiment: GAL4-receptor chimera ligand activation, GAL4-RXR with TK-MH100x4-LUC in CV1 cells; assay type: cell-based; conditions: 10^-5 M 9cRA, 10^-5 M TTNPB, 10^-4 M methoprene acid, FIG. 3c
T5 construct: hRXRα 203-462; expressed in transfected cells; host or cells: CV-1
T5 sequence (P19793 203-462): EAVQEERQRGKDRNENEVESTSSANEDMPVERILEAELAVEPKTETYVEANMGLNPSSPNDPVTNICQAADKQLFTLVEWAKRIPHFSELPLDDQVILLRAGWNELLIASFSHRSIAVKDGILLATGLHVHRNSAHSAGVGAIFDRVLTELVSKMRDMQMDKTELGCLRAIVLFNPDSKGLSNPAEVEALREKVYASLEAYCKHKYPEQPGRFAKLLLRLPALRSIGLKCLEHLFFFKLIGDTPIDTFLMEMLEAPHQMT
Description: as §2, §3, §4

LXR/RXR heterodimer = target: T6, LXR/RXR heterodimer (Homo sapiens, UniProt P19793); experiment: CV1 cotransfection of both hLXRα and hRXRα with LXRE reporter TK-LXRE2-LUC; assay type: cell-based; conditions: CV1 cells, 25 ng hLXRα:2.5 ng hRXRα; 10^-4 M methoprene acid; FIG. 4
T6 construct: Construction of wild-type receptor inserted into the expression vectors RSV and CMX; expressed in transfected cells; host or cells: CV-1
T6 sequence (Q13133 whole entry A196R): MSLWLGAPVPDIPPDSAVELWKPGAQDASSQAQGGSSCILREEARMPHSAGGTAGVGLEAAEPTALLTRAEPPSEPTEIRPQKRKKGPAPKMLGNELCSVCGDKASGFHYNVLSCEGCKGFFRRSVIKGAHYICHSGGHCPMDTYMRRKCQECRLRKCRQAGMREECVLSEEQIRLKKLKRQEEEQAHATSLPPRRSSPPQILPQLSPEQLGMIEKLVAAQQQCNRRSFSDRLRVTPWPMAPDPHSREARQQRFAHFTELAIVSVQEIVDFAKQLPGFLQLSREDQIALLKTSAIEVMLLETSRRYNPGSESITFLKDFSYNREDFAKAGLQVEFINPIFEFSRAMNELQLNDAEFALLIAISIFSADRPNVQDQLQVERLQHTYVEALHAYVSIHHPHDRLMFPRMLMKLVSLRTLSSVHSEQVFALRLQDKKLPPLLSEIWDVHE
T6 sequence (P19793 whole entry): as the sequence (P19793 whole entry) above
Description: Thus, expression plasmids for hLXRα, hRXRα, or no receptor (-) were cotransfected into CV1 cells in combination with the reporter plasmids TK-LUC or TK-LXRE2-LUC as indicated. Cells were then incubated with ethanol control (-) or […] methoprene acid (+) and assayed for luciferase activity as described above. TK-LXRE2-LUC contains two copies of the LXRE. In experiments in which LXR and RXR plasmids were cotransfected together the ratio of the two expression plasmids was 1:0.1 (25 ng hLXRα:2.5 ng hRXRα). In all other experiments were LXR and RXR were added alone, the amount of each receptor expression plasmid was 25 ng.

hRXRα [2] = target: T3, hRXRα; experiment: CV1 cotransfection of hRXRα alone with LXRE luciferase reporter; assay type: cell-based; conditions: CV1 cells, 25 ng hRXRα; 10^-4 M methoprene acid; FIG. 4
Description: as §1, §5

LXRα/RXRα heterodimer = LXRα/RXRα heterodimer (Homo sapiens, UniProt Q13133;P19793 Q13133:1-447,P19793:1-462); experiment: EMSA; strong complex; supershifted by anti-RXRα; 75 mM KCl, 20 mM Hepes pH 7.4; conditions: tags: none; coupled in vitro transcription/translation (Promega); label: 32P; HindIII overhangs
Chain of LXRα/RXRα heterodimer (P19793 whole entry, one chain of several): as the sequence (P19793 whole entry) above
Description: (§6) For EMSA experiments, receptor proteins were generated using a coupled in vitro transcription/translation system according to the manufacturer's instructions (Promega). Sequences of double-stranded oligonucleotides were as shown in the figures and text and were synthesized with HindIII overhangs. Binding reactions were performed in a total volume of 20 μl consisting of 75 mM KCl, 20 mM Hepes, pH 7.4, 2 mM DTT, 7.5% glycerol, 0.1% NP-40, 2
(§7) MG poly (dI-dC) (Pharmacia), 40 pmol of a non-specific single-stranded oligonucleotide (for removal of non-specific binding in the lysates), and 2 μl of receptor lysates or unprogrammed (control) lysates. Reactions containing lysates and competing oligonucleotides were incubated for 30 minutes on ice followed by the addition of 40 fmol of ^32P-labeled oligonucleotide probe (labeled by end-filling) and further incubated for 20 minutes at room temperature. Samples were then analyzed on 5% polyacrylamide gels run in 0.5X TBE buffer. For antibody supershifting experiments, 1 μl of anti-hRXRα antiserum (a gift from Jacki Dyck), or non-specific antiserum was added to the reactions after addition of the radiolabeled probe and incubated at room temperature for 10 minutes, followed by gel electrophoresis.

RXRα = RXRα (Homo sapiens, UniProt P19793 P19793:1-462); experiment: EMSA; RXRα alone; conditions: label: 32P; HindIII overhangs
Chain of RXRα (P19793 whole entry, one chain of several): as the sequence (P19793 whole entry) above
Description: as §6, §7

Molecule	LXRα activation of LXRE-containing luciferase reporter (TK-LXRE3-LUC) (hLXRα)	Ligand inducible transactivation by GAL4-RAR chimera (GAL4-RAR)	Ligand inducible transactivation by GAL4-LXR chimera (GAL4-LXR)	Ligand binding / specificity for RAR (RARs)	Ligand binding / specificity for RXR (RXRs)	other results
CC1=C(/C=C/C(C)=C\C=C\C(C)=C\C(=O)O)C(C)(C)CCC1 [9cRA, 9-cis retinoic acid]	strongly activated	activates both RXR and RAR	no activation	high affinity ligand for both RARs and RXRs; also recorded: binds to both RXR and RAR	high affinity ligand for both RARs and RXRs; also recorded: binds to both RXR and RAR	–
CC1=C(/C=C/C(C)=C/C=C/C(C)=C/C(=O)O)C(C)(C)CCC1 [atRA, All-trans retinoic acid]	–	–	–	ligand for only RARs	ligand for only RARs	–
COC(C)(C)CCCC(C)C/C=C/C(C)=C/C(=O)O (centres unmarked) [methoprene acid]	strongly activated; also recorded: strongly activates transcription	only activates RXR	no activation	–	RXR-specific	Ligand response of TK-LXRE2-LUC with LXRα alone (hLXRα; CV1 cells, 25 ng hLXRα, methoprene acid, FIG. 4): marked ligand response; Response of RXRE reporter TK-CRBPII-LUC in the presence of RXRα (hRXRα [1]; hRXRα transfected): marked response; Response of RXRE reporter TK-CRBPII-LUC with RARα or LXRα transfected instead of RXRα (hRXRα [1]): not RARα or LXRα; Retinoid response of RAR response element reporter (hRARα): occurs through an RXR homodimer; Ligand inducible transactivation by GAL4-RXR chimera (GAL4-RXR): only activates RXR; Retinoid responsive activity of TK-LXRE2-LUC with LXRα and RXRα together (LXR/RXR heterodimer): dramatic synergistic increase; Ligand response of TK-LXRE2-LUC with RXRα alone (hRXRα [2]): no response
C/C(=C\c1ccc(C(=O)O)cc1)c1ccc2c(c1)C(C)(C)CCC2(C)C [TTNPB, (E)-4-[2-(5,6,7,8-tetrahydro-5,5,8,8-tetramethyl-2-napthalenyl) -1-propenyl]benzoic acid]	no effect	–	no activation	RAR-specific	–	–
B1	–	–	–	–	–	binding result (LXRα/RXRα heterodimer): binds; binding result (RXRα): no binding
